One may read the IC50 as the midpoint of a concentration-inhibition curve.

In ChEMBL document CHEMBL1138260, “The first biologically active synthetic analogues of FK228, the depsipeptide histone deacetylase inhibitor” (J Med Chem, 2007) one finds IC50 and Activity data, which are given here for five compounds.

The target in one assay is Histone deacetylase. Nature of the assay: Inhibition of HDAC in HeLa nuclear extract in presence of DTT. The class given is protein assay, Homo sapiens.
A further assay has as its target Histone deacetylase 1 (Homo sapiens, UniProt Q13547).
The target of assay [1] is T1, Protein deacetylase HDAC6 (Homo sapiens, UniProt Q9UBN7).
T1 sequence (Q9UBN7 whole entry): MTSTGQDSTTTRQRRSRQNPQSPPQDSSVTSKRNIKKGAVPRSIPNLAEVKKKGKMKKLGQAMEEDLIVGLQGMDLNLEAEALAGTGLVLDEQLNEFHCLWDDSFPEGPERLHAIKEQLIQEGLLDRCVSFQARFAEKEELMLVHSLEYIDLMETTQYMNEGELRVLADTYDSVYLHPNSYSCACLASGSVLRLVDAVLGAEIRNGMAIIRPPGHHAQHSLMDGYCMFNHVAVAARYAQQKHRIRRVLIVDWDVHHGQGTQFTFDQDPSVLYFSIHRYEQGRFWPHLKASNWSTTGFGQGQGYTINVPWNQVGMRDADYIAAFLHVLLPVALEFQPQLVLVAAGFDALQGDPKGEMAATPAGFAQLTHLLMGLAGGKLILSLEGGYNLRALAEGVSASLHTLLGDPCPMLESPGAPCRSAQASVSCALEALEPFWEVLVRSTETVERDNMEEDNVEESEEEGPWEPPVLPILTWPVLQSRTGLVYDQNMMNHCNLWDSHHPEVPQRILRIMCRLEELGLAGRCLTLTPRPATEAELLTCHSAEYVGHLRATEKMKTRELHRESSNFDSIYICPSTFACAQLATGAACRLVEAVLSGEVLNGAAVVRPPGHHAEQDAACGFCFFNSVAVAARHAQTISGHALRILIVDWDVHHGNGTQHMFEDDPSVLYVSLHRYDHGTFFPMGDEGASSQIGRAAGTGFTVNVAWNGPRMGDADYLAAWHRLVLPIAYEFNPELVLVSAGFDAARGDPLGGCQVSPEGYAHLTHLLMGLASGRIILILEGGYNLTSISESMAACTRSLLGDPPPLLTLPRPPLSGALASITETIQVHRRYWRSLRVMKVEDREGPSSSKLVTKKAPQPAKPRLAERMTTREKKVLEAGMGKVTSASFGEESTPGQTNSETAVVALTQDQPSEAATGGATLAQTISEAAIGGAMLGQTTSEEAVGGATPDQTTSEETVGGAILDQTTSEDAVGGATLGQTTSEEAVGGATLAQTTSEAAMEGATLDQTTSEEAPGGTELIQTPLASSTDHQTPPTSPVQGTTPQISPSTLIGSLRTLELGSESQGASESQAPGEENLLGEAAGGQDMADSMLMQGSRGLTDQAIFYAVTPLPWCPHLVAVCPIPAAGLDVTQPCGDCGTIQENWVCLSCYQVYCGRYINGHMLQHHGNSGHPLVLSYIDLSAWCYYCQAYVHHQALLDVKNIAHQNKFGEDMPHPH
Description: Inhibition of HDAC6 in presence of DTT

The subject of assay [2] is MCF7. Nature of the assay: Growth inhibition of MCF7 cells. The class given is functional, cell-based. The conditions noted are these: Homo sapiens.
Assay [3] relates to MCF7. Nature of the assay: Induction of p21cip1/waf1 promoter activity in MCF7 cells after 24 hrs. The conditions noted are these: Homo sapiens. The class given is functional, cell-based.

Activity calls are given as the source filed them. The calls are words filed in the database; no cut-off is given here.

Histone deacetylase 1, sequence (Q13547 whole entry): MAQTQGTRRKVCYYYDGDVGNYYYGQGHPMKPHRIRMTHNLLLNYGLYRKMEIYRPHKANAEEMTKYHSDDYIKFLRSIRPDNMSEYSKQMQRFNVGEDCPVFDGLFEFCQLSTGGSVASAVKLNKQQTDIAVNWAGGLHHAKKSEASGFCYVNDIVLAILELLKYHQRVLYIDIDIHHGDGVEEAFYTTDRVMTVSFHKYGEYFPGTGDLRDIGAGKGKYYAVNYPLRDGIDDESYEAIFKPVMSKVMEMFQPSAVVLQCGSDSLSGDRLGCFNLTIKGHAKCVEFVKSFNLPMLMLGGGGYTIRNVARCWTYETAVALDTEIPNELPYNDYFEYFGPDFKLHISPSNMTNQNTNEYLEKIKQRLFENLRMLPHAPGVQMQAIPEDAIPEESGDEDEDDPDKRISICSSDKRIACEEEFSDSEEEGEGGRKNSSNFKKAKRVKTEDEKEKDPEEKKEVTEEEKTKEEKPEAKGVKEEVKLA
Description for Histone deacetylase 1: Inhibition of HDAC1 in presence of DTT

For the compound `CC(=O)SCC/C=C/[C@@H]1CC(=O)N[C@H](C)C(=O)N[C@H](C)C(=O)N[C@H](C(C)C)C(=O)NCC(=O)O1`, the IC50 is 242 nM at Histone deacetylase, more than 100 nM at Histone deacetylase 1, more than 10000 nM in assay [1] and 55 nM with MCF7 [2].
Regarding `CC(C)[C@H]1NC(=O)[C@H]2CSSCC/C=C/[C@H](CC(=O)N[C@H](C)C(=O)N2)OC(=O)CNC1=O`, the IC50 was 15 nM on Histone deacetylase, 1.6 nM against Histone deacetylase 1, 881 nM in assay [1] and 37 nM in the assay on MCF7 [2]. Besides, the outcome in the assay on MCF7 [3] was Active.
Take `CC(C)[C@H]1NC(=O)[C@@H](C)NC(=O)[C@@H](C)NC(=O)C[C@@H](/C=C/CCS)OC(=O)CNC1=O`: the concentration for half-maximal inhibition (IC50) on Histone deacetylase was 7 nM; against Histone deacetylase 1 it was 17.5 nM; in assay [1], 4920 nM; in the assay with MCF7 [2], more than 1000 nM.
As to `CC(C)[C@H]1NC(=O)C[C@H]2/C=C/CCSSC[C@@H](NC1=O)C(=O)N[C@H](C(C)C)C(=O)NCC(=O)O2`, the IC50 on Histone deacetylase stood at 7.2 nM; at Histone deacetylase 1, 1.6 nM; in assay [1] it was 897 nM; with MCF7 [2] it was 5.1 nM.
As for `COC(=O)CNC(=O)[C@H](NC(=O)[C@H]1CSSCC/C=C/[C@@H](O)CC(=O)N[C@H](C)C(=O)N1)C(C)C`, the IC50 at Histone deacetylase is more than 3200 nM; with MCF7 [2] it was more than 1000 nM.
